Source: patent US8815309B2, “Methods of treating a subject with benign prostate hyperplasia” (Zafgen, Inc., priority 2010, dated 2014)
Marks after values point to notes of the source that are not given here.

System: prostate gland
Test: Prostate weight in male rats after once daily intravenous infusion for four weeks
Type: in vivo, rat
Settings: 15-min iv infusion once daily for four weeks, N=10
Method: Male rats were divided into a control group and three test groups with 20 animals per group. Animals were administered the MetAP-2 inhibitor Compound I, represented by the formula: Compound I was prepared in a 5% mannitol solution was administered once daily for four weeks by a fifteen-minute intravenous infusion according to Table I. [table] Ten animals from each group were euthanized at the end of the four weeks. The remaining ten animals were allowed to recover for 10 additional weeks and were then euthanized.

CO[C@@H]1[C@H](OC(=O)/C=C/c2ccc(OCCN(C)C)cc2)CCC2(CO2)[C@H]1[C@@]1(C)O[C@@H]1CC=C(C)C (stereo in doubt) [Compound I]
Prostate Weight (g) Mean (0.04 mg/kg/day): 0.90** g
Prostate Weight (g) Mean (0.2 mg/kg/day): 0.89** g
Prostate Weight (g) Mean (1.0 mg/kg/day): 0.76** g
